According to ChEMBL document CHEMBL6121007, “Design, synthesis and evaluation of pyrimidine derivatives as sedative-hypnotic agents” (Eur J Med Chem, 2025):
Calls of active or inactive are those of the source. No cut-off for these calls is given here.

Tests used:
[1] = Drug concentration in male mouse brain at 10 mg/kg, ip measured after 2 hrs by LC-MS/MS analysis; assay type: ADME, organism-based; settings: read-out: Ct
Mus musculus [2] = experiment: Upregulation of circadian entrainment related genes in hypothalamus of mouse at 2.5 mg/kg, ip measured after 30 mins by KEGG enrichment analysis relative to control; assay type: functional; settings: 0.5 h
Mus musculus [3] = experiment: Sedative-hypnotic activity in mouse assessed as decrease in number of square crossing at 50 mg/kg, ip administrated as single dose and measured after 30 mins by open field test; assay type: functional, organism-based
Mus musculus [4] = experiment: In vivo activation of cAMP/PKA/CREB signaling pathway in mouse assessed as increase in PKA expression in hypothalamus at 2.5 mg/kg, ip measured after 30 mins by Western blot analysis; assay type: functional, organism-based
Mus musculus [5] = experiment: Upregulation of lipid and atherosclerosis related genes in hypothalamus of mouse at 2.5 mg/kg, ip measured after 30 mins by KEGG enrichment analysis relative to control; assay type: functional; settings: 0.5 h
[6] = Drug concentration in male mouse plasma at 10 mg/kg, ip measured after 4 hrs by LC-MS/MS analysis; assay type: ADME, organism-based
[7] = Upregulation of Wnt signaling pathway related genes in hypothalamus of mouse at 2.5 mg/kg, ip measured after 30 mins by KEGG enrichment analysis relative to control; assay type: functional; settings: 0.5 h
Mus musculus [8] = experiment: Upregulation of neurodegeneration-multiple diseases pathways related genes in hypothalamus of mouse at 2.5 mg/kg, ip measured after 30 mins by KEGG enrichment analysis relative to control; assay type: functional; settings: 0.5 h
Mus musculus [9] = experiment: Sedative-hypnotic activity in mouse assessed as decrease in number of square crossing at 0.1 to 0.5 mg/kg, ip administrated as single dose and measured within 3 mins by open field test; assay type: functional, organism-based; settings: dose 0.1-0.5 mg/kg
Mus musculus [10] = experiment: Upregulation of arachidonic acid metabolism related genes in hypothalamus of mouse at 2.5 mg/kg, ip measured after 30 mins by KEGG enrichment analysis relative to control; assay type: functional; settings: 0.5 h
Mus musculus [11] = experiment: Upregulation of serine metabolism related genes in hypothalamus of mouse at 2.5 mg/kg, ip measured after 30 mins by KEGG enrichment analysis relative to control; assay type: functional; settings: 0.5 h
Mus musculus [12] = experiment: Upregulation of parathyroid hormone action related genes in hypothalamus of mouse at 2.5 mg/kg, ip measured after 30 mins by KEGG enrichment analysis relative to control; assay type: functional; settings: 0.5 h
Mus musculus [13] = experiment: Upregulation of amphetamine addiction related genes in hypothalamus of mouse at 2.5 mg/kg, ip measured after 30 mins by KEGG enrichment analysis relative to control; assay type: functional; settings: 0.5 h
Mus musculus [14] = experiment: Sedative-hypnotic activity in mouse assessed as increase in latency time of first step out of center square at 0.1 to 2.5 mg/kg, ip administrated as single dose and measured after 30 mins by open field test; assay type: functional, organism-based; settings: dose 0.1-2.5 mg/kg
Mus musculus [15] = experiment: Upregulation of glycerolipid metabolism related genes in hypothalamus of mouse at 2.5 mg/kg, ip measured after 30 mins by KEGG enrichment analysis relative to control; assay type: functional; settings: 0.5 h
[16] = AUC (0 to t) in male Sprague-Dawley rat at 2.5 mg/kg, ip measured after 5 to 1440 mins by LC-MS/MS analysis; assay type: ADME, organism-based; settings: in vivo, time 5-1440 min
[17] = Tmax in male Sprague-Dawley rat at 0.5 mg/kg, iv measured after 2 to 720 mins by LC-MS/MS analysis; assay type: ADME, organism-based; settings: in vivo, time 2-720 min
Mus musculus [18] = experiment: Upregulation of serotonergic synapse related genes in hypothalamus of mouse at 2.5 mg/kg, ip measured after 30 mins by KEGG enrichment analysis relative to control; assay type: functional; settings: 0.5 h
[19] = Upregulation of Rap1 signaling pathway related genes in hypothalamus of mouse at 2.5 mg/kg, ip measured after 30 mins by KEGG enrichment analysis relative to control; assay type: functional; settings: 0.5 h
[20] = Upregulation of proteoglycans in cancer related genes in hypothalamus of mouse at 2.5 mg/kg, ip measured after 30 mins by KEGG enrichment analysis relative to control; assay type: functional; settings: 0.5 h
Mus musculus [21] = experiment: Sedative-hypnotic activity in pentobarbital-induced mouse assessed as asleep rate at 0.5 to 2.5 mg/kg, ip preadministered with compound for 20 mins followed by pentobarbital administration and measured within 15 mins (reference value: 12.5 %); assay type: functional; settings: dose 0.5-2.5 mg/kg, time <= 35 min
[22] = MRT (0 to infinity) in male Sprague-Dawley rat at 2.5 mg/kg, ip measured after 5 to 1440 mins by LC-MS/MS analysis; assay type: ADME, organism-based; settings: in vivo, time 5-1440 min
Mus musculus [23] = experiment: In vivo activation of cAMP/PKA/CREB signaling pathway in mouse assessed as increase in CREB phosphorylation in hypothalamus at 2.5 mg/kg, ip measured after 30 mins by Western blot analysis; assay type: functional, organism-based
[24] = AUC (0 to t) in male Sprague-Dawley rat at 0.5 mg/kg, iv measured after 2 to 720 mins by LC-MS/MS analysis; assay type: ADME, organism-based; settings: in vivo, time 2-720 min
[25] = Upregulation of kaposi sarcoma-associated herpesvirus infection related genes in hypothalamus of mouse at 2.5 mg/kg, ip measured after 30 mins by KEGG enrichment analysis relative to control; assay type: functional; settings: 0.5 h
Mus musculus [26] = experiment: Sedative-hypnotic activity in mouse assessed as decrease in number of square crossing at 2.5 mg/kg, ip administrated as single dose and measured within 3 mins by open field test; assay type: functional, organism-based
[27] = Upregulation of cytokine-cytokine receptor interaction related genes in hypothalamus of mouse at 2.5 mg/kg, ip measured after 30 mins by KEGG enrichment analysis relative to control; assay type: functional; settings: 0.5 h
[28] = Upregulation of herpes simplex virus 1 infection related genes in hypothalamus of mouse at 2.5 mg/kg, ip measured after 30 mins by KEGG enrichment analysis relative to control; assay type: functional; settings: 0.5 h
[29] = Upregulation of mTOR signaling pathway related genes in hypothalamus of mouse at 2.5 mg/kg, ip measured after 30 mins by KEGG enrichment analysis relative to control; assay type: functional; settings: 0.5 h
[30] = Upregulation of FoxO signaling pathway related genes in hypothalamus of mouse at 2.5 mg/kg, ip measured after 30 mins by KEGG enrichment analysis relative to control; assay type: functional; settings: 0.5 h
[31] = Cmax in male Sprague-Dawley rat at 0.5 mg/kg, iv measured after 2 to 720 mins by LC-MS/MS analysis; assay type: ADME, organism-based; settings: in vivo, time 2-720 min
Mus musculus [32] = experiment: Upregulation of purine metabolism related genes in hypothalamus of mouse at 2.5 mg/kg, ip measured after 30 mins by KEGG enrichment analysis relative to control; assay type: functional; settings: 0.5 h
[33] = MRT (0 to infinity) in male Sprague-Dawley rat at 0.5 mg/kg, iv measured after 2 to 720 mins by LC-MS/MS analysis; assay type: ADME, organism-based; settings: in vivo, time 2-720 min
[34] = Upregulation of focal adhesion related genes in hypothalamus of mouse at 2.5 mg/kg, ip measured after 30 mins by KEGG enrichment analysis relative to control; assay type: functional; settings: 0.5 h
Mus musculus [35] = experiment: Sedative-hypnotic activity in mouse assessed as decrease in grip strength score at 0.1 to 2.5 mg/kg, ip administrated as single dose and measured after 30 mins by grip strength test; assay type: functional, organism-based; settings: dose 0.1-2.5 mg/kg
[36] = Upregulation of Ras signaling pathway related genes in hypothalamus of mouse at 2.5 mg/kg, ip measured after 30 mins by KEGG enrichment analysis relative to control; assay type: functional; settings: 0.5 h

CCn1c2ccccc2c2cc(Nc3ccnc(Nc4ccc(C)c(OC)c4)n3)ccc21
concentration at 2 h [1]: 0.023 µg/mL
Activity (Mus musculus [2]): 3.47%
Activity (Mus musculus [3]): Active
Activity (Mus musculus [4]): Active
Activity (Mus musculus [5]): 7.51%
concentration at 4 h [6]: 0.0647 µg/mL
Activity [7]: 4.05%
Activity (Mus musculus [8]): 5.78%
Activity (Mus musculus [9]): Active; No Significant Difference Compared With Control Mouse
Activity (Mus musculus [10]): 2.89%
Activity (Mus musculus [11]): 1.73%
Activity (Mus musculus [12]): 4.05%
Activity (Mus musculus [13]): 3.47%
Activity (Mus musculus [14]): Active
Activity (Mus musculus [15]): 2.31%
AUC(0-t) [16]: 3.18 µg·h/mL
Tmax [17]: 1.8 min
Activity (Mus musculus [18]): 4.05%
Activity [19]: 3.47%
Activity [20]: 5.2%
Activity (Mus musculus [21]): 100%
MRT inf [22]: 8.16 h
Activity (Mus musculus [23]): Active
AUC(0-t) [24]: 0.801 µg·h/mL
Activity [25]: 4.62%
Activity (Mus musculus [26]): Active
Activity [27]: 8.09%
Activity [28]: 5.78%
Activity [29]: 3.47%
Activity [30]: 4.62%
Cmax [31]: 0.893 µg/mL
Activity (Mus musculus [32]): 1.73%
MRT inf [33]: 3.47 h
Activity [34]: 2.89%
Activity (Mus musculus [35]): Active
Activity [36]: 3.47%
